Laboratory results as given in patent US20260201420A1, “HOMOLOGY-INDEPENDENT TARGETED DNA INSERTION IN HUMAN T CELLS” (The Board of Trustees of The Leland Stanford Junior …, priority 2022, published 2026).

Legend:
[1] = system: primary human T cells; test: HDR inhibitor (AZD0156) modulation of GD2-CAR integration via HITI and HDR; type: cell-based
Description: (§1) Fresh Leukopaks were obtained from STEMCELL Technologies and processed for negative selection using the EasySep Human T Cell Isolation Kit. Cells were activated using Dynabeads Human T-Activator CD3/CD28 (Thermo Fisher) at a 1:1 ratio and cultivated in TexMACS media supplemented with human IL-7 at 12.5 ng/ml and IL-15 at 12.5 ng/ml (all Miltenyi Biotec) as well as 3% human male AB Serum (Access Cell Culture). The culture volume was expanded over time to maintain cells at a concentration of ^~1.5×10^6/ml using G-Rex 24-well and 6-well plates or G-Rex 100M according to manufacturer's instructions (Wilson-Wolf). Small molecule inhibitors AZD0156 (Selleck Chemicals) and Methotrexate (Sigma Aldrich) were resuspended in DMSO and added to the cell culture media as indicated.
On day 2, unless otherwise indicated, Dynabeads were magnetically removed and cells were counted prior to electroporation on the Maxcyte GTx. For electroporation cells were washed once in Electroporation Buffer (Maxcyte) and then resuspended at 2×10^8/ml for small scale experiments or in 2.4 ml for large-scale electroporation. Wildtype Cas9 (61 μM, IDT) and sgRNA (125 μM, IDT) were mixed vol 1:1 resulting in a molar ratio of 2:1 and incubated for 10 min. at room temperature. Hereafter indicated amounts of plasmid DNA (3 mg/ml) were added to the RNP and incubated for at least 10 min. to allow the RNP to cut the plasmid DNA. For small-scale experiments 5×10^6 T cells were resuspended in 25 μl and 1.25 μl of RNP and respective amounts of plasmid DNA were added. Cells were then transferred into OC-25×3 processing assemblies and electroporated using the Expanded T cell 4 protocol for activated T cells or the Resting T cell 14-3 protocol for electroporation of non-activated T cells, which were stimulated after electroporation with Dynabeads at a 1:1 ratio. Small scale experiments for GPC2 CAR knock-in were conducted using the OC100×2 processing assembly with a final reaction volume of 100 μl. For large scale experiments the GMP compatible CL1.1 assembly was used. […]

[2] = system: primary human T cells; test: CRISPR knock-in of GD2-CAR into TRAC in activated T cells (HDR vs HITI plasmid templates), flow cytometry and cell counts; type: cell-based; settings: for knock-in frequencies (mean frequencies): GD2-CAR into TRAC, activated T cells electroporated day 2, flow cytometry day 10, n=4 donors
Description: as §1
Plasmid DNA was optimized for gene therapeutic application and consisted of two components: R6K origin of replication and an anti-Levansucrase antisense RNA to allow for an antibiotic-free selection. This ^~430 bp backbone prevents transgene silencing after genomic insertion^40,43,44. Knock-In templates were synthesized at Genscript and flanking cut sites for NheI and KpnI were used to clone synthetic genes into plasmid backbones. To introduce RNP cut sites within the plasmid DNA, the genomic target of the respective RNP was included into the above mentioned synthetic gene.
(§2) On day 2, unless otherwise indicated, Dynabeads were magnetically removed and cells were counted prior to electroporation on the Maxcyte GTx. For electroporation cells were washed once in Electroporation Buffer (Maxcyte) and then resuspended at 2×10^8/ml for small scale experiments or in 2.4 ml for large-scale electroporation. Wildtype Cas9 (61 μM, IDT) and sgRNA (125 μM, IDT) were mixed vol 1:1 resulting in a molar ratio of 2:1 and incubated for 10 min. at room temperature. Hereafter indicated amounts of plasmid DNA (3 mg/ml) were added to the RNP and incubated for at least 10 min. to allow the RNP to cut the plasmid DNA. For small-scale experiments 5×10^6 T cells were resuspended in 25 μl and 1.25 μl of RNP and respective amounts of plasmid DNA were added. Cells were then transferred into OC-25×3 processing assemblies and electroporated using the Expanded T cell 4 protocol for activated T cells or the Resting T cell 14-3 protocol for electroporation of non-activated T cells, which were stimulated after electroporation with Dynabeads at a 1:1 ratio. Small scale experiments for GPC2 CAR knock-in were conducted using the OC100×2 processing assembly with a final reaction volume of 100 μl. For large scale experiments the GMP compatible CL1.1 assembly was used. Post electroporation cells were rested in electroporation buffer either in the processing assembly (OC-25×3, OC-100×2) or in G-Rex 6-well plates (CL1.1) for 30 min. before being transferred into final G-Rex vessels.
(§3) Cell counts and Viability were obtained using the Nexcelom Cellometer Auto 2000. Samples were mixed with AO/PI dye at a 1:1 volume ratio and then analyzed using the setting Immune Cells—Low RBC.
(§4) For GD2-CAR and GPC2-CAR detection, an anti-14g2a idiotype or recombinant human Glypican-2 protein (R&D systems) were fluorescently labeled with the DyLight 650 Microscale Antibody Labeling kit (Thermo Fisher). For intracellular staining CAR+ T cells were co-cultured with respective tumor cell lines at a 1:4 ratio. Prior to co-cultivation the protein transport inhibitor Monensin (BD) and the anti-CD107a antibody (Biolegend) were added to T cell samples. […]

[3] = system: TRAC; test: IN&OUT PCR and Sanger sequencing of knock-in junctions; parameters: species or system human; settings: IN&OUT PCR, Sanger sequencing
Description: Genomic DNA was extracted using the PureLink Genomic DNA Mini Kit (Invitrogen). Primers flanking the insertion sites of HITI1c and binding outside the respective homology arm sequence of HDR2c as well as primers binding within the inserted sequences were designed using Primer3Plus (www.primer3plus.com). Phusion Hot Start Flex 2× Mastermix (NEB) was used to amplify genomic regions of interest and DNA gel electrophoresis was conducted using the E-Gel Power Snap System (Thermo Scientific). Samples were shipped to ELIM BIOPHARM for Sanger sequencing. Sequences were aligned for analysis using snapgene.

[4] = system: non-activated T cells; test: CRISPR knock-in of GD2-CAR in non-activated T cells; type: cell-based, human; settings: HITI1c vs HDR2c, day 10
Description: as §2, §3
as §4, with “ratio.” for “ratio. Prior to co-cultivation the protein transport inhibitor Monensin (BD) and the anti-CD107a antibody (Biolegend) were added to T cell samples.”

[5] = system: primary human T cells; test: Titration of MTX in primary human T cells; type: cell-based
Description: as §1
To enable enrichment of the desired CAR+ knock-in population we optimized CEMENT based selection by comparing three different clinically relevant enrichment markers: Dihydrofolate Reductase^L22F/F31S (DHFR-FS), truncated Epidermal Growth Factor Receptor (tEGFR), and truncated Nerve Growth Factor Receptor (tNGFR)^9,17,33. All three enrichment markers were successfully co-inserted along with the GD2-CAR resulting in total transgene sizes of ^~2.5-3 kb. CRISPR knock-in CAR-T cells were either enriched using the FDA approved drug MTX which was diluted from a 10 mM stock in media to result in a 50 nM final concentration. […]

[6] = system: primary human T cells; test: HITI/CEMENT knock-in CAR-T cell manufacturing at clinical scale; type: cell-based; settings: end of MTX treatment (day 7), 50 nM
Description: as §1
On day 2, unless otherwise indicated, Dynabeads were magnetically removed and cells were counted prior to electroporation on the Maxcyte GTx. For electroporation cells were washed once in Electroporation Buffer (Maxcyte) and then resuspended at 2×10^8/ml for small scale experiments or in 2.4 ml for large-scale electroporation. […]
Cell counts and Viability were obtained using the Nexcelom Cellometer Auto 2000. Samples were mixed with AO/PI dye at a 1:1 volume ratio and then analyzed using the setting Immune Cells—Low RBC. […]

Molecule: CN(C)CCCOc1ccc(-c2ccc3ncc4c(c3c2)n(C2CCOCC2)c(=O)n4C)cn1 [AZD0156]
- knock-in efficiency of HDR2c when AZD0156 was added ([1]; HDR2c template, 18 hours treatment post electroporation, vs untreated): decreased knock-in efficiency
- insertion rates for HITI1c when AZD0156 was added ([1]; HITI1c template, 18 hours treatment post electroporation, vs untreated): higher insertion rates
- GD2-CAR T cell yields in HITI1c samples after AZD0156 treatment ([1]; compared to untreated controls): decreased GD2-CAR T cell yields

Molecule: HITI2c: Knock-In template plasmid, two cut sites: cut_site-EFS-Signalpeptide-14g2a-CD8TM-4-1BB-CD3z-STOP-bGH_ployA-cut_site (SEQ ID NO: 4)
- knock-in frequencies (mean frequencies) [2]: 9.3%

Molecule: HITI1c: Knock-In template plasmid, one cut site: cut_site-EFS-Signalpeptide-14g2a-CD8TM-4-1BB-CD3z-STOP-bGH_ployA (SEQ ID NO: 3)
- Indels at both junctions of integrated plasmid construct [3]: 6 bp
- CAR+ T cell yield in non-activated T cells [4]: higher
- insertion rates in non-activated T cells [4]: higher
- viability in non-activated T cells [4]: higher
- knock-in frequencies (mean frequencies) [2]: 15.7%
- GD2-CAR T cell yields, HITI vs HDR ([2]; HITI1c vs HDR2c, day 10, average): ~ 3 fold
- GD2-CAR T cell yield, one cut site vs two cut sites ([2]; HITI1c vs HITI2c, day 10): ~ 6 fold
- insertion rates, HITI1c vs HDR2c ([2]; activated T cells, day 10): comparable

Molecule: CN(Cc1cnc2nc(N)nc(N)c2n1)c1ccc(C(=O)N[C@@H](CCC(=O)O)C(=O)O)cc1 [MTX, methotrexate]
- concentration from which efficient killing occurs ([5]; n=2 donors, technical duplicates): ≥ 50 nM
- concentration at which MTX exerts cytostatic effects in dividing T cells ([5]; primary human T cells post activation): 50 nM
- effects of MTX on viability of edited vs. non-edited T cells [6]: only non-edited cells were compromised in their viability
